Data published in ChEMBL document CHEMBL1123890, “Combined analgesic/neuroleptic activity in N-butyrophenone prodine-like compounds” (J Med Chem, 1987).
Activity calls are given as the source filed them. The rule behind the calls is not given here.

Experiments:
D(1A) dopamine receptor = D(1A) dopamine receptor (Rattus norvegicus, UniProt P18901); test: Inhibitory concentration against rat striatal dopamine (D1) sensitive adenylate cyclase activity; assay type: functional
D(2) dopamine receptor = D(2) dopamine receptor (Rattus norvegicus, UniProt P61169); test: Ability to inhibit the specific binding of [3H]- spiroperidol to Dopamine receptor D2 in rat striatal membrane preparation by 50%; assay type: cell membranes, Striatum
D(2) dopamine receptor, sequence (P61169 whole entry): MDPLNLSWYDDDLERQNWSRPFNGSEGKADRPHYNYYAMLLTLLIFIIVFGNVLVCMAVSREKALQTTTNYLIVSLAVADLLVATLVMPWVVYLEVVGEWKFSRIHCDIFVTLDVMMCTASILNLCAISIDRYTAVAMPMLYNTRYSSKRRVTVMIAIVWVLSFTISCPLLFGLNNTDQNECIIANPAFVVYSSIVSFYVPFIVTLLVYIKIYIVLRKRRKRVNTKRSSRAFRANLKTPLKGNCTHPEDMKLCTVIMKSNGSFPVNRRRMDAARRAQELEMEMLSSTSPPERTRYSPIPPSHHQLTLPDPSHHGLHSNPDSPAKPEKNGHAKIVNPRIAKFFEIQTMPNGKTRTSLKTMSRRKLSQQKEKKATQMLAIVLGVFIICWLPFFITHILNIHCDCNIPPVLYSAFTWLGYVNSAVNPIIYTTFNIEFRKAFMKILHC

Mus musculus [1] = test: In vivo analgesic activity in mice after subcutaneous administration by hot plate assay method.; assay type: functional; settings: sc
Opioid receptor = Opioid receptor (Rattus norvegicus, UniProt P33533+P34975+P33535); test: Ability to inhibit the specific binding of [3H]- dihydromorphine to opiate receptors in rat brain membrane preparation by 50%; assay type: cell membranes
Rattus norvegicus = species on record: Rattus norvegicus; test: The dose required to reduce the number of apomorphine induced rotation by 50% in rats with monolateral lesion of nigrostriatal tracts; assay type: functional; settings: Nigrostriatal tract
Mus musculus [2] = test: In vivo analgesic activity in mice after subcutaneous administration by hot plate assay method; assay type: functional; settings: sc
Mus musculus [3] = test: In vivo analgesic activity in mice after subcutaneous administration by hot plate assay method; inactive at 25 mg; assay type: functional, organism-based

D(1A) dopamine receptor, sequence (P18901 whole entry): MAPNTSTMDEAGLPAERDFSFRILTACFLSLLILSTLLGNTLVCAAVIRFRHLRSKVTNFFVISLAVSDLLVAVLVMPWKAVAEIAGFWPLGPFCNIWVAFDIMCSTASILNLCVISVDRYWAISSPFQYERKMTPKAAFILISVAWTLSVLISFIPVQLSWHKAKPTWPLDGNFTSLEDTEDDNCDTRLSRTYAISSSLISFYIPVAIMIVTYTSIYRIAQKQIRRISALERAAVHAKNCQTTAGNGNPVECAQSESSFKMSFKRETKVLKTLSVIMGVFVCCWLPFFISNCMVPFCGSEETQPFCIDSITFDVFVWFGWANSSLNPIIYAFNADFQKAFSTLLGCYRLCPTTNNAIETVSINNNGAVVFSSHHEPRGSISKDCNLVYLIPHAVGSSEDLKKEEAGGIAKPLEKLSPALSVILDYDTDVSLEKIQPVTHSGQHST

Row | Structure (SMILES) | IC50 (D(1A) dopamine receptor) | IC50 (D(2) dopamine receptor) | ED50 (Mus musculus [1]) | IC50 (Opioid receptor) | ED50 (Rattus norvegicus) | ED50 (Mus musculus [2]) | ED50 (Mus musculus [3])
1 | O=C(CCCN1CCC(c2ccccc2)CC1)c1ccc(F)cc1 | 7500 nM | 69.9 nM | 5 mg/kg | > 10000 nM | 1.31 mg/kg |  | 
2 | C[C@@H]1CN(CCCC(=O)c2ccc(F)cc2)CCC1(O)c1ccccc1 (some centres not stated) | 2650 nM |  | > 5 mg/kg | > 10000 nM | 0.93 mg/kg |  | 
3 | CN1CCc2cccc3c2[C@H]1Cc1ccc(O)c(O)c1-3 [APOMORPHINE] |  |  |  | 302 nM |  |  | 
4 | C[C@H]1CN(CCCC(=O)c2ccc(F)cc2)CCC1(O)c1ccccc1 (some centres not stated) | 1650 nM |  | > 5 mg/kg | > 10000 nM | 1.54 mg/kg |  | 
5 | CCC(=O)OC1(c2ccccc2)CCN(CCCC(=O)c2ccc(F)cc2)C[C@H]1C (some centres not stated) | 3200 nM | 46.9 nM |  | 8.67 nM | 1.59 mg/kg | 0.65 mg/kg | 
6 | CCC(=O)OC1CCN(CCCC(=O)c2ccc(F)cc2)CC1 |  | > 50000 nM |  | 598 nM | 4.82 mg/kg |  | 
7 | CCC(=O)OC1(c2ccccc2)CCN(CCCC(=O)c2ccc(F)cc2)C[C@@H]1C (some centres not stated) | 2600 nM | 33.5 nM |  | 3.33 nM | 0.22 mg/kg | 0.23 mg/kg | 
8 | O=C(CCCN1CCC(O)(c2ccccc2)CC1)c1ccc(F)cc1 | 2800 nM | 47.1 nM | > 5 mg/kg | 3215 nM | 0.35 mg/kg |  | 
9 | O=C(CCCN1CCC(O)CC1)c1ccc(F)cc1 |  | > 5000 nM |  | 5500 nM | 5.84 mg/kg |  | inactive
10 | CCC(=O)OC1(c2ccccc2)CCN(CCCC(=O)c2ccc(F)cc2)CC1 | 2400 nM | 28.8 nM |  | 2.96 nM | 0.2 mg/kg | 0.32 mg/kg | 
11 | CN1CC[C@]23c4c5ccc(O)c4O[C@H]2[C@@H](O)C=C[C@H]3[C@H]1C5.Cl [MORPHINE HYDROCHLORIDE] |  |  | 1.2 mg/kg |  |  |  | 
